Measurements published in patent US10472326B2, “PQSR modulators” (HELMHOLTZ-ZENTRUM FÜR INFEKTIONSFORSCHUNG GMBH, priority 2014, dated 2019).
“Also recorded” adds a separate entry of the source. Like-named read-outs stand apart in the source and are kept apart here. Marks after values point to notes of the source that are not given here.

Columns and labels:
PqsR = molecular target: T1, PqsR (Pseudomonas aeruginosa, UniProt Q9I4X0); experiment: cell-based; settings: read-out: Inhibition of PqsR stimulation induced by 50 nM PQS in the presence of test compd. (full inhibition = 1.00)
T1 construct: expressed in transfected cells; host or cells: E. coli DH5α carrying plasmid pEAL08-2
Protocol: The ability of the compounds to either stimulate or antagonize the PqsR-dependent transcription was analysed as previously described using a β-galactosidase reporter gene assay in E. coli expressing PqsR. Briefly, a culture of E. coli DH5α cells containing the plasmid pEAL08-2, which encodes PqsR under the control of the tac promoter and the β-galactosidase reporter gene lacZ controlled by the pqsA promoter, were co-incubated with test compound. Antagonistic effects of compounds were assayed in the presence of 50 nM PQS. After incubation, β-galactosidase activity was measured spectralphotometrically at OD420 nm using POLARstar Omega (BMG Labtech, Ortenberg, Germany) and expressed as percent stimulation of controls. For the determination of IC50 values, compounds were tested at least at eight different concentrations.

P. aeruginosa PA14 [1] = settings: strain not given, cited from earlier work
Pseudomonas aeruginosa [2] = settings: cited from earlier work
P. aeruginosa biofilm = settings: background statement; cited from earlier work
P. aeruginosa infection [3] = settings: cited from earlier work
P. aeruginosa infection [4] = settings: cited from earlier work; remark: listed apart in the source
P. aeruginosa PA14 [5] = settings: in cellulo; ref. [20]; strain not given; read-out: IC50, inhibition of virulence factor pyocyanin production; cited from earlier work
P. aeruginosa PA14 [6] = experiment: Pyocyanin assay; type: cell-based; settings: for Reduction of Pyocyanin: PA14
Protocol: For analysis of pyocyanin formation, cultivation procedure was the same as for HHQ determination with the exception of using PPGAS medium. Pyocyanin produced by PA14 was quantified using the method of Essar et al. with some modifications, as described in detail by Klein et al.. Briefly, 900 μL of each culture were extracted with 900 μL of chloroform and 800 μL of the organic phase re-extracted with 250 μL of 0.2 M HCl. OD520 was measured in the aqueous phase using FLUOstar Omega (BMG Labtech, Ortenberg, Germany). For each sample, cultivation and sample work-up were performed in triplicates. Inhibition values of pyocyanin formation were normalized to OD600.

P. aeruginosa PA14 [7] = experiment: Determination of extracellular PQS levels; type: cell-based; settings: compd. at 15 μM
Protocol: Quantification of PQS produced by P. aeruginosa PA14 was performed according to the method of Maurer et al.. For each sample, cultivation and sample work-up were performed in triplicates. Inhibition values of PQS formation were normalized to OD600.

Pseudomonas aeruginosa [8] = settings: cited from earlier work; remark: listed apart in the source
P. aeruginosa PA14 [9] = experiment: Biofilm growth assay, PA14; type: cell-based; settings: added to 24 h old biofilms, final concentration 100 μM
Protocol: Static biofilms at the bottom of 96 well microtiter plates were grown with small modifications as previously described. In brief, overnight P. aeruginosa LB cultures of PA14 were adjusted to an OD600 of 0.002 with fresh medium and transferred into a half-area 96 well μClear plate (Greiner Bio-One, 100 μL/well). The plate was covered with an air-permeable foil and incubated at 37° C. in a chamber with humid atmosphere. After 24 h, a staining solution including Syto9 and propidium iodide (LIVE/DEAD BacLight Bacterial Viability kit, Molecular Probes/Invitrogen) and the test compound solved in DMSO was added to the biofilms (final concentration 100 μM, 1% DMSO (v/v)) and biofilms were further incubated for 24 h at 37° C. After in total 48 h, biofilm stacks were acquired in the center of each well (step size: 3 μm) using an automated confocal microscope (TCS SP8, Leica Microsystems) equipped with an ×40/1.10 water objective. The acquired image stacks were processed and analyzed with a customized analysis solution for the Developer XD2 (Definiens) based on a previously described algorithm. 3D-projections of the biofilms are visualized with the software IMARIS (version 7.6.5, Bitplane).

clinical isolate MHH9639 = experiment: Biofilm growth assay, clinical isolate MHH9639; type: cell-based, P. aeruginosa; settings: added to 24 h old biofilms, final concentration 100 μM

T1 sequence (Q9I4X0 whole entry): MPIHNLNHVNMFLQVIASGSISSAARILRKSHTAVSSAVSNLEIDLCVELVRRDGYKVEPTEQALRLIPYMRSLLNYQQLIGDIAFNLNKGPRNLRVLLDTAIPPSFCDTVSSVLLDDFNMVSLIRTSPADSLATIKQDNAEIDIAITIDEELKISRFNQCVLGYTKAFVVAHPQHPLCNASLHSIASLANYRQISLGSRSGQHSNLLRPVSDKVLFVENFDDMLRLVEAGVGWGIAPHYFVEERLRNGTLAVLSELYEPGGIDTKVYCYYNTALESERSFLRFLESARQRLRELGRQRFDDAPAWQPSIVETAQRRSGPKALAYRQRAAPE

SMILES | inhibition at 0.05 µM (PqsR) | inhibition at 5 µM (PqsR) | also measured
CCCCCCCc1[nH]c2ccc([N+](=O)[O-])cc2c(=O)c1C(=O)OCC [Compound 2, ethyl 2-heptyl-6-nitro-4-oxo-1,4-dihydroquinoline-3-carboxylate] | -8% | 20% | –
CCCCCCCc1[nH]c2ccc([N+](=O)[O-])cc2c(=O)c1C(N)=O [2-heptyl-6-nitro-4-oxo-1,4-dihydroquinoline-3-carboxamide] | – | – | Reduction of PQS production (P. aeruginosa PA14 [1]; at 15 μM, ref. [20]): 37%; Reduction of HHQ production (Pseudomonas aeruginosa [2]; at 15 μM, ref. [20]): 54%; Inhibition of biofilm formation (P. aeruginosa biofilm): not being able to inhibit biofilm formation; Protection of larvae from lethal P. aeruginosa infection (P. aeruginosa infection [3]; at 22 nM corresponding to 7.3 ng g^−1 body weight, ref. [20]): full protection; Toxicity in animal model (P. aeruginosa infection [3]; in vivo): no sign of toxicity; Toxicity in animal model (P. aeruginosa infection [4]; in vivo): no sign of toxicity; Protection of nematodes from lethal P. aeruginosa infection (P. aeruginosa infection [4]; ref. [20]): strong protection; IC50 (P. aeruginosa PA14 [5]): 2 µM
CCOCCCCc1[nH]c2ccc([N+](=O)[O-])cc2c(=O)c1C(=O)OCC [Compound 3] | 2% | 27% | –
Nc1cccc(F)c1C(=O)O [Compound 6FABA] | – | – | IC50 (Pseudomonas aeruginosa [2]; PqsA inhibitor, refs [14, 16, 22], read-out: IC50, production of signal molecules HHQ and PQS): ~100 µM
CCCCCCCc1[nH]c2ccccc2c(=O)c1[N+](=O)[O-] [Compound 9, 2-heptyl-3-nitroquinolin-4(1H)-one] | 14% | 17% | –
CCCCCCCc1cc(=O)c2cnccc2[nH]1 [Ref. 9, 2-Heptyl-1,6-naphthyridin-4(1H)-one, reference compound] | 8% | 2% | –
CCCCCCCc1[nH]c2ccccc2c(=O)c1C(=O)OCC [Compound 4] | 18% | 32% | –
CCCCCCCc1cc(=O)c2cc(C(F)(F)F)ccc2n1C [Ref. 1, 2-heptyl-1-methyl-6-(trifluoromethyl)quinolin-4(1H)-one, reference compound] | 31% | 100% | Reduction of Pyocyanin (P. aeruginosa PA14 [6]; compd. at 15 μM): 58%; Reduction of PQS (P. aeruginosa PA14 [7]): 8.9%
CCCCCCCc1[nH]c2ccccc2c(=O)c1CO [Compound 6] | 5% | 28% | –
COC(=O)c1ccccc1N [methyl anthranilate] | – | – | PQS formation (P. aeruginosa PA14 [1]; at millimolar concentrations, ref. [12]): inhibit PQS formation; Production of the virulence factor elastase (Pseudomonas aeruginosa [8]): inhibit
CCCCCCCc1[nH]c2ccc([N+](=O)[O-])cc2c(=O)c1C(=O)NO [Compound 10, 2-heptyl-N-hydroxy-6-nitro-4-oxo-1,4-dihydroquinoline-3-carboxamide] | 30% | 78% | Reduction of Pyocyanin (P. aeruginosa PA14 [6]; determined at 12.5 μM): 57^e %
CCCCCCCc1[nH]c2ccncc2c(=O)c1C(=O)O [Compound 7, 2-heptyl-4-oxo-1,4-dihydro-1,6-naphthyridine-3-carboxylic acid] | 6% | 20% | –
CCCCCOCc1cc(=O)c2cc(C(F)(F)F)ccc2[nH]1 [Ref. 4, 2-(Pentyloxymethyl)-6-(trifluoromethyl)quinolin-4(1H)-one, reference compound] | 29% | 100% | Reduction of Pyocyanin (P. aeruginosa PA14 [6]; compd. at 15 μM): 29%; Reduction of PQS (P. aeruginosa PA14 [7]): 21%
CCCCCCCc1[nH]c2ccccc2c(=O)c1C(=O)NO [Compound 8] | 15% | 29% | IC50 (P. aeruginosa PA14 [6]; Pseudomonas aeruginosa, PA14, read-out: IC50, production of the virulence factor pyocyanin): ~12 µM; Reduction of Pyocyanin (P. aeruginosa PA14 [6]; determined at 12.5 μM): 51^e %; Biofilm formation / biovolume of the biofilms (P. aeruginosa PA14 [9]): strongly inhibited; also recorded: markedly reduced; Biofilm formation / biovolume of the biofilms (clinical isolate MHH9639): strongly inhibited; also recorded: markedly reduced
CCCCCCCc1[nH]c2ccc([N+](=O)[O-])cc2c(=O)c1C(=O)O [Compound 12, 2-heptyl-6-nitro-4-oxo-1,4-dihydroquinoline-3-carboxylic acid] | 11% | 34% | –
CCCCCCCc1[nH]c2ccncc2c(=O)c1C(=O)OCC [Compound 5] | 24% | 76% | –
CCCCCCCc1[nH]c2ccc([N+](=O)[O-])cc2c(=O)c1CO [Compound 1, 2-heptyl-3-(hydroxymethyl)-6-nitroquinolin-4(1H)-one] | 45% | 100% | Reduction of Pyocyanin (P. aeruginosa PA14 [6]; compd. at 15 μM): 83%; Reduction of PQS (P. aeruginosa PA14 [7]): 33%
